Experimental data as given in patent US8138227B2, “Method for inhibiting or reversing non-enzymatic glycation” (Trustees of Dartmouth College, priority 2006, dated 2012).

Assay: Transglycation of glucose-ethylamine with thiolamines followed by 13C NMR
Settings: 50 mM thiolamine, 20 mM G-E; for potency as transglycating agent (kinetics of decomposition of G-E and formation of thiazolidines): pH 7.25, room temperature; for conversion of G-E to thiazolidine (glucosyl-cysteamine / glucosyl-penicillamine): 250 mM HEPES pH 7.25, room temperature
Experimental: The reaction mixture (0.5 ml in a 5 mm NMR tube) included 250 mM HEPES, pH 7.25, 10% D2O (for the purpose of locking the NMR magnetic field) and 50 mM concentration of a compound of interest such as cysteine. The reaction was performed at room temperature and it was initiated by adding an aliquot of G-E to produce a final concentration of 20 mM at which time consecutive NMR spectra of 20-minute duration were acquired using 580 scans, 60° pulses and an interpulse delay of 2.065 seconds.
NMR spectra were obtained on the VARIAN UNITY-300 and -500 MHz machines. Spectra were analyzed using information from model compounds and chemical shift data known in the art (Neglia, et al. (1985) J. Biol. Chem. 260:5406-10; Mossine, et al. (1994) Carbohyd. Res. 262:257-70).
Studies of reactions involving Schiff bases are intrinsically difficult as these compounds are labile at physiological pH. As such, to unambiguously follow Shiff base reactions in real-time, ^13C NMR spectroscopy was employed. To utilize this technique efficiently, glucose-ethylamine (G-E) was synthesized and labeled with ^13C at the C-1 position of the glucose moiety and with ^15N at the amino group of the ethylamine as a model compound of glucosyl-lysine.
Due to the spin-spin coupling between the nuclei of neighboring ^15N and ^13C atoms, the ^13C-labeled C-1 peak of glucose appeared in the ^13C NMR spectrum as a doublet resonating at 90.00 ppm. The unique signature doublet in the ^13C NMR spectrum of G-E, its chemical shift as well as the distinct ^13C chemical shifts of the other glucose-nucleophile adducts allowed for real-time observation reactions between G-E and various nucleophiles since cleavage of the ethylamine-glucose bond results in loss of the G-E doublet and the concomitant formation of new peaks corresponding to the new glucose-nucleophile adducts, e.g., the endproducts of transglycation of G-E, with glycine, taurine, spermidine and N-acetylcysteine. Because all of these transglycation products are labile at physiological pHs, the reactions were carried at a slightly alkaline pH of 8.5 to stabilize the reactants and products sufficiently so they could be followed by NMR over a span of several hours.

Row | Compound | potency as transglycating agent (kinetics of decomposition of G-E and formation of thiazolidines) | conversion of G-E to thiazolidine (glucosyl-cysteamine / glucosyl-penicillamine) [%]
1 | N[C@@H](CS)C(=O)NCC(=O)O [cys-gly] | reasonably good transglycating agents | –
2 | NCCS [cysteamine] | much more potent | 80
3 | N[C@@H](CS)C(=O)O [cysteine] | reasonably good transglycating agents | –
4 | CC(C)(S)[C@@H](N)C(=O)O [penicillamine] | much more potent | 70
